Consider seven compounds from PubChem BioAssay AID1259411 (Chemical Carcinogenesis Research Information System (CCRIS), 2018).

This series has as its system rodent carcinogenicity bioassays, tumor incidence. The series is described as follows: CCRIS carcinogenicity studies. A digest of the protocol:
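Archive of carcinogenicity, mutagenicity, tumor promotion and tumor inhibition results drawn from journals, NCI reports and other sources, expert-reviewed; covers 1985-2011 and is no longer updated.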

Calls of active or inactive are those of the source. How the calls were made is not given here.

Consider `O=C1c2ccccc2CN2C(=O)c3ccccc3CN12`, for which the carcinogen call runs as follows: (Species: MOUSE, Strain/Sex: BALB/FEMALE, Route: ORAL, Dose: 0, 300, 600, 1200 PPM IN DIET FOR 80 WK (STUDY DURATION: 120 WK), Dose: 0, 300, 600, 1200 PPM IN DIET FOR 80 WK (STUDY DURATION: 120 WK), Tumor Site: Type of Lesion: LIVER: HEPATOCELLULAR ADENOMA OR CARCINOMA, ANGIOSARCOMA) “active; positive”; (Species: MOUSE, Strain/Sex: BALB/MALE, Route: ORAL, Dose: 0, 300, 600, 1200 PPM IN DIET FOR 80 WK (STUDY DURATION: 120 WK), Dose: 0, 300, 600, 1200 PPM IN DIET FOR 80 WK (STUDY DURATION: 120 WK), Tumor Site: Type of Lesion: LIVER: ANGIOMA, ANGIOSARCOMA) “active; positive”.
With `CC1=C(C)C(=O)C(C(CCCCCC(=O)O)c2ccccc2)=C(C)C1=O` (stereo unspecified), the carcinogen call reads like this: (Species: RAT, Strain/Sex: F344/FEMALE, Route: ORAL, Dose: 0, 3, 10, 30, 100 MG/KG/D IN THE DIET FOR 52 WK (STUDY DURATION: 52 WK), Dose: 0, 3, 10, 30, 100 MG/KG/D IN THE DIET FOR 52 WK (STUDY DURATION: 52 WK)) “inactive; negative”; (Species: RAT, Strain/Sex: F344/MALE, Route: ORAL, Dose: 0, 3, 10, 30, 100 MG/KG/D IN THE DIET FOR 52 WK (STUDY DURATION: 52 WK), Dose: 0, 3, 10, 30, 100 MG/KG/D IN THE DIET FOR 52 WK (STUDY DURATION: 52 WK)) “inactive; negative”.
Consider `Cn1cnc([N+](=O)[O-])c1Sc1ncnc2nc[nH]c12`, for which the carcinogen call was “active; positive” (Species: MOUSE, Strain/Sex: B6C3F1/FEMALE, Route: ORAL, Dose: 0, 5, 20 PPM IN DIET FOR 100 WK (STUDY DURATION: 100 WK), Dose: 0, 5, 20 PPM IN DIET FOR 100 WK (STUDY DURATION: 100 WK), Tumor Site: Type of Lesion: HEMATOPOIETIC SYSTEM: LYMPHOMA, UTERUS: HEMANGIODOTHELIOMA); “inactive; negative” (Species: MOUSE, Strain/Sex: B6C3F1/MALE, Route: ORAL, Dose: 0, 5, 20 PPM IN DIET FOR 100 WK (STUDY DURATION: 100 WK), Dose: 0, 5, 20 PPM IN DIET FOR 100 WK (STUDY DURATION: 100 WK)); “active; positive” (Species: MOUSE, Strain/Sex: SWISS/MALE,FEMALE, Route: INTRAPERITONEAL, Dose: 40 MG/KG IN NAOH-SALINE 1/D ON D 1-4 AFTER BIRTH, Tumor Site: Type of Lesion: HEMATOPOIETIC SYSTEM (LEUKEMIA)); “active; positive” (Species: RAT, Strain/Sex: F344/MALE,FEMALE, Route: ORAL, Dose: 150 MG/KG IN DIET FOR 52 WK, Tumor Site: Type of Lesion: EAR: SQUAMOUS CELL CARCINOMA); “active; positive” (Species: RAT, Strain/Sex: SPRAGUE-DAWLEY/FEMALE, Route: ORAL, Dose: 1.5, 2.2 G/RAT IN DIET (ESTIMATED TOTAL), Tumor Site: Type of Lesion: THYMUS GLAND: LYMPHOMA, EAR (DUCT): SQUAMOUS CELL CARCINOMA).
For `CC(Cl)CCl` (stereo unspecified), the carcinogen call by setting is: (Species: MOUSE, Strain/Sex: B6C3F1/FEMALE, Route: GAVAGE, Dose: 0, 125, 250 MG/KG IN CORN OIL 5 D/WK FOR 103 WK (STUDY DURATION: 104 WK), Dose: 0, 125, 250 MG/KG IN CORN OIL 5 D/WK FOR 103 WK (STUDY DURATION: 104 WK), Tumor Site: Type of Lesion: LIVER: ADENOMA, ADENOMA OR CARCINOMA) “active; positive”; (Species: MOUSE, Strain/Sex: B6C3F1/MALE, Route: GAVAGE, Dose: 0, 125, 250 MG/KG IN CORN OIL 5 D/WK FOR 103 WK (STUDY DURATION: 104 WK), Dose: 0, 125, 250 MG/KG IN CORN OIL 5 D/WK FOR 103 WK (STUDY DURATION: 104 WK), Tumor Site: Type of Lesion: LIVER: ADENOMA, ADENOMA OR CARCINOMA) “active; positive”; (Species: RAT, Strain/Sex: F344/FEMALE, Route: GAVAGE, Dose: 0, 125, 150 MG/KG IN CORN OIL 5 D/WK FOR 103 WK (STUDY DURATION: 104 WK), Dose: 0, 125, 150 MG/KG IN CORN OIL 5 D/WK FOR 103 WK (STUDY DURATION: 104 WK), Tumor Site: Type of Lesion: MAMMARY GLAND: ADENOCARCINOMA) “equivocal”; (Species: RAT, Strain/Sex: F344/MALE, Route: GAVAGE, Dose: 0, 62, 125 MG/KG IN CORN OIL 5 D/WK FOR 103 WK (STUDY DURATION: 104 WK), Dose: 0, 62, 125 MG/KG IN CORN OIL 5 D/WK FOR 103 WK (STUDY DURATION: 104 WK)) “inactive; negative”.
On to `c1ccc2c(c1)-c1cccc3cccc-2c13`, for which the carcinogen call was “inactive; negative” (Species: MOUSE, Strain/Sex: B6C3F1/MALE, Route: INTRAPERITONEAL, Dose: 0, 400 NMOL IN 35 µL DMSO ON DAYS 1 (1/7 TOTAL DOSE), 8 (2/7 TOTAL DOSE), AND 15 (4/7 TOTAL DOSE) AFTER BIRTH (STUDY DUR); “active; positive” (Species: MOUSE, Strain/Sex: CD-1/FEMALE, Route: INTRAPERITONEAL, Dose: 0, 3.46, 17.3 UMOL (TOTAL DOSE) IN DMSO ADMINISTERED ON DAYS 1, 8, AND 15 OF LIFE (STUDY DURATION: 52 WK), Dose: 0, 3.46, 17.3 UMOL (TOTAL DOSE) IN DMSO ADMINISTERED ON DAYS 1, 8, AND 15 OF LIFE (STUDY DURATION: 52 WK), Tumor Site: Type of Lesion: LUNG: TUMOR); “active; positive” (Species: MOUSE, Strain/Sex: CD-1/MALE, FEMALE, Route: INTRAPERITONEAL, Dose: 0, 0.7, 1.75, 3.5 (TOTAL DOSE) ADMINISTERED TO NEWBORN MICE ON DAYS 1, 8, AND 15 OF AGE IN 1/7, 2/7, AND 4/7 DOSES, RESP, Dose: 0, 0.7, 1.75, 3.5 (TOTAL DOSE) ADMINISTERED TO NEWBORN MICE ON DAYS 1, 8, AND 15 OF AGE IN 1/7, 2/7, AND 4/7 DOSES, RESP, Tumor Site: Type of Lesion: LUNG: ADENOMA OR ADENOCARCINOMA); “active; positive” (Species: MOUSE, Strain/Sex: CD-1/MALE, Route: INTRAPERITONEAL, Dose: 0, 3.46, 17.3 UMOL (TOTAL DOSE) IN DMSO ADMINISTERED ON DAYS 1, 8, AND 15 OF LIFE (STUDY DURATION: 52 WK), Dose: 0, 3.46, 17.3 UMOL (TOTAL DOSE) IN DMSO ADMINISTERED ON DAYS 1, 8, AND 15 OF LIFE (STUDY DURATION: 52 WK), Tumor Site: Type of Lesion: LUNG: TUMOR, LIVER: TUMOR); “active; positive” (Species: MOUSE, Strain/Sex: ICR/FEMALE, Route: INTRAPERITONEAL, Dose: 0, 257.6 UG TOTAL DOSE (36.8 UG/5 µL, 73.6 UG/10 µL, 147.2 UG/20 µL DMSO ON DAYS 1, 8 AND 15) ADMINISTERED TO NEWBORN AN, Tumor Site: Type of Lesion: LUNG: ADENOMA); “active; positive” (Species: MOUSE, Strain/Sex: ICR/MALE, Route: INTRAPERITONEAL, Dose: 0, 257.6 UG TOTAL DOSE (36.8 UG/5 µL, 73.6 UG/10 µL, 147.2 UG/20 µL DMSO ON DAYS 1, 8 AND 15) ADMINISTERED TO NEWBORN AN, Tumor Site: Type of Lesion: LUNG: ADENOMA). Besides, the carcinogen call was “active; positive” (Species: MOUSE, Strain/Sex: SWISS/FEMALE, Route: INTRAPERITONEAL, Dose: 0, 100, 500 UG IN DMSO ON DAY 1 OF STUDY FOLLOWED BY 0, 200, 1000 UG ON DAY 8 THEN 0, 400, 2000 UG ON DAY 15 ADMINISTERE, Dose: 0, 100, 500 UG IN DMSO ON DAY 1 OF STUDY FOLLOWED BY 0, 200, 1000 UG ON DAY 8 THEN 0, 400, 2000 UG ON DAY 15 ADMINISTERE, Tumor Site: Type of Lesion: LUNG: ADENOMA OR CARCINOMA) and “active; positive” (Species: MOUSE, Strain/Sex: SWISS/MALE, Route: INTRAPERITONEAL, Dose: 0, 100, 500 UG IN DMSO ON DAY 1 OF STUDY FOLLOWED BY 0, 200, 1000 UG ON DAY 8 THEN 0, 400, 2000 UG ON DAY 15 ADMINISTERE, Dose: 0, 100, 500 UG IN DMSO ON DAY 1 OF STUDY FOLLOWED BY 0, 200, 1000 UG ON DAY 8 THEN 0, 400, 2000 UG ON DAY 15 ADMINISTERE, Tumor Site: Type of Lesion: LUNG: ADENOMA OR CARCINOMA).
With `FCCl`, the carcinogen call (Species: RAT, Strain/Sex: WISTAR/MALE,FEMALE, Route: GAVAGE, Dose: 300 MG/KG IN CORN OIL 5/WK FOR 52 WK, Tumor Site: Type of Lesion: STOMACH: SQUAMOUS CELL CARCINOMA, FIBROSARCOMA) was “active; positive”.
As to `CN(C=O)N=O`, the carcinogen call is “inactive; negative” (Species: HAMSTER, Strain/Sex: SYRIAN/FEMALE, Route: GAVAGE, Dose: 0, 0.6 MG IN CORN OIL 1/WK FOR 15 WK (STUDY DURATION: 30 WK)); “active; positive” (Species: HAMSTER, Strain/Sex: SYRIAN/MALE, Route: GAVAGE, Dose: 0, 0.6 MG IN CORN OIL 1/WK FOR 15 WK (STUDY DURATION: 35 WK), Tumor Site: Type of Lesion: FORESTOMACH: TUMOR); “active; positive” (Species: RAT, Strain/Sex: F344/FEMALE, Route: GAVAGE, Dose: 0, 0.6 MG IN CORN OIL 2/WK FOR 20 WK (STUDY DURATION: 40 WK), Tumor Site: Type of Lesion: FORESTOMACH: TUMOR, ESOPHAGUS: TUMOR); “active; positive” (Species: RAT, Strain/Sex: F344/MALE, Route: GAVAGE, Dose: 0, 0.6 MG IN CORN OIL 2/WK FOR 20 WK (STUDY DURATION: 40 WK), Tumor Site: Type of Lesion: FORESTOMACH: TUMOR).
